The results in this text go back to ChEMBL document CHEMBL4334506, “Xylodon flaviporus-Derived Drimane Sesquiterpenoids That Inhibit Osteoclast Differentiation” (J Nat Prod, 2019).

pIC50: −log10 of the molar value.

One series concerns BMDM. The series is described as follows: Cytotoxicity against M-CSF stimulated C57BL/6 mouse bone marrow macrophage cells at 1 to 10 uM after 4 days by XTT assay. The class given is cell-based. The following applies: 96 h. (In general: Formazan colour is commonly taken as a measure of viable cells.)
For the molecule `CC1(C)CCC[C@]2(C)[C@H](O)C(C=O)=C[C@H](OC(=O)/C=C/c3ccccc3)[C@@H]12`, the Activity result is “Non-Toxic”.
Same read-out and setting: next, `CC1(C)CCC[C@]2(C)C3=C(COC3=O)C[C@H](OC(=O)/C=C/c3ccccc3)[C@@H]12`: “Non-Toxic”.
The same measure, in the same setting: for `CC1(C)CCC[C@]2(C)C3=C(COC3=O)C[C@H](OC(=O)/C=C/c3ccc(O)cc3)[C@@H]12` the value was “Non-Toxic”.
Still for that read-out and setting: next, `CC1(C)CCC[C@]2(C)[C@@H]3C(=C[C@H](OC(=O)/C=C/c4ccc(O)cc4)[C@@H]12)CO[C@H]3O`: “Non-Toxic”; `CO[C@@H]1OC(=O)C2=C[C@H](OC(=O)/C=C/c3ccccc3)[C@H]3C(C)(C)CCC[C@]3(C)[C@H]21`: “Non-Toxic”.

The test system of the next series is BMDM. Description: Inhibition of M-CSF/RANKL-induced osteoclast differentiation in C57BL/6 mouse bone marrow macrophage after 4 days by TRAP-staining based microscopic analysis. The class given is functional, cell-based.
Conditions: not given
As to `CC1(C)CCC[C@]2(C)[C@H](O)C(C=O)=C[C@H](OC(=O)/C=C/c3ccccc3)[C@@H]12`, the inhibition result was “Dose-dependent effect”.
The same measure, in the same setting: for `CC1(C)CCC[C@]2(C)C3=C(COC3=O)C[C@H](OC(=O)/C=C/c3ccccc3)[C@@H]12` the value was “Dose-dependent effect”; for `CC1(C)CCC[C@]2(C)[C@@H]3C(=C[C@H](OC(=O)/C=C/c4ccccc4)[C@@H]12)CO[C@H]3O`, “Dose-dependent effect”.
Turning to `CC1(C)CCC[C@]2(C)C3=C(COC3=O)C[C@H](OC(=O)/C=C/c3ccc(O)cc3)[C@@H]12`, the inhibition result was “Dose-dependent effect”.
On the same count and under the same terms, next, `CC1(C)CCC[C@]2(C)[C@@H]3C(=C[C@H](OC(=O)/C=C/c4ccc(O)cc4)[C@@H]12)CO[C@H]3O`: “Dose-dependent effect”; `CO[C@@H]1OC(=O)C2=C[C@H](OC(=O)/C=C/c3ccccc3)[C@H]3C(C)(C)CCC[C@]3(C)[C@H]21`: “Dose-dependent effect”.

The next series has as its system BMDM. Description: Cytotoxicity against M-CSF stimulated C57BL/6 mouse bone marrow macrophage cells at 3 to 30 uM after 4 days by XTT assay. It counts as cell-based. To be noted: 96 h.
In the case of `CC1(C)CCC[C@]2(C)[C@@H]3C(=C[C@H](OC(=O)/C=C/c4ccccc4)[C@@H]12)CO[C@H]3O`, the Activity result is “Non-Toxic”.

Tested on in another series: not listed separately
The series is described as follows: Inhibition of M-CSF/RANKL-induced osteoclast differentiation in C57BL/6 mouse bone marrow macrophage assessed as reduction in multinucleated TRAP+ cells after 4 days by TRAP-staining based microscopic analysis. It counts as functional, cell-based. The following applies: C57BL/6, BMDM, 96 h.
One may read the pIC50 as −log10 of the IC50, conventionally taken in molar units. On to `CC1(C)CCC[C@]2(C)[C@H](O)C(C=O)=C[C@H](OC(=O)/C=C/c3ccccc3)[C@@H]12`, for which the pIC50 is 5.07.
Take `CC1(C)CCC[C@]2(C)C3=C(COC3=O)C[C@H](OC(=O)/C=C/c3ccccc3)[C@@H]12`: the pIC50 is 5.80.
Regarding `CC1(C)CCC[C@]2(C)[C@@H]3C(=C[C@H](OC(=O)/C=C/c4ccccc4)[C@@H]12)CO[C@H]3O`, the pIC50 was 4.97.
Still for that read-out and setting: for `CC1(C)CCC[C@]2(C)C3=C(COC3=O)C[C@H](OC(=O)/C=C/c3ccc(O)cc3)[C@@H]12` the value was 6.05; for `CC1(C)CCC[C@]2(C)[C@@H]3C(=C[C@H](OC(=O)/C=C/c4ccc(O)cc4)[C@@H]12)CO[C@H]3O`, 5.68; for `CO[C@@H]1OC(=O)C2=C[C@H](OC(=O)/C=C/c3ccccc3)[C@H]3C(C)(C)CCC[C@]3(C)[C@H]21`, 5.00.
